Source: US20260021103A1, “IKZF2 AND CK1-ALPHA DEGRADING COMPOUNDS AND USES THEREOF” (President and Fellows of Harvard College, priority 2022, published 2026)

Key:
Format in all cases: cell-based
Settings in all cases: 24 h, HEK293T GFP reporter
CK1α = molecular target: T1, CK1α (Homo sapiens, UniProt P48729+Q96SW2); experiment: Flow cytometry for measuring degradation, HEK293T GFP-POI reporter cells (CK1α)
T1 construct: expressed in transfected cells; host or cells: HEK293T (lentiviral transduction, puromycin selection, FACS sorting)

IKZF1 = molecular target: T2, IKZF1 (Homo sapiens, UniProt Q13422+Q96SW2); experiment: Flow cytometry for measuring degradation, HEK293T GFP-POI reporter cells (IKZF1)
T2 construct: expressed in transfected cells; host or cells: HEK293T (lentiviral transduction, puromycin selection, FACS sorting)

GSPT1 = GSPT1 (Homo sapiens, UniProt P15170+Q96SW2); experiment: Flow cytometry for measuring degradation, HEK293T GFP-POI reporter cells (GSPT1); set-up: expressed in transfected cells; host or cells: HEK293T
IKZF2 = molecular target: T3, IKZF2 (Homo sapiens, UniProt Q96SW2+Q9UKS7); experiment: Flow cytometry for measuring degradation, HEK293T GFP-POI reporter cells (IKZF2)
T3 construct: expressed in transfected cells; host or cells: HEK293T (lentiviral transduction, puromycin selection, FACS sorting)
T3 sequence (Q9UKS7 whole entry): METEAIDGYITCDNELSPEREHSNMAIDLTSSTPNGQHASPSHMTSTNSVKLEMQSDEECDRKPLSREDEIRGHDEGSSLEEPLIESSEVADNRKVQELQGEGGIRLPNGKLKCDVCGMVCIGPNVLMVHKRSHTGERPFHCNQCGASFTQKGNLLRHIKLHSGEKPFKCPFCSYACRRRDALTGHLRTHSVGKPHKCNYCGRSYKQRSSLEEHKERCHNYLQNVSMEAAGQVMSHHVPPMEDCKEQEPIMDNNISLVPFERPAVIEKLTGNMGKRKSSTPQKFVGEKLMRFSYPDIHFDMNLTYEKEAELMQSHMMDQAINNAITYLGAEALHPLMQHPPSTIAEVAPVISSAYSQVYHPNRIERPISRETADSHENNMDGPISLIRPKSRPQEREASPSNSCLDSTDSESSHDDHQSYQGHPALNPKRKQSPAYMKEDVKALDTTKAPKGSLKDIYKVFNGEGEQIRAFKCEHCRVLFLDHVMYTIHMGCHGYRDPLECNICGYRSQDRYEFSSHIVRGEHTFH
T3 sequence (Q96SW2 whole entry): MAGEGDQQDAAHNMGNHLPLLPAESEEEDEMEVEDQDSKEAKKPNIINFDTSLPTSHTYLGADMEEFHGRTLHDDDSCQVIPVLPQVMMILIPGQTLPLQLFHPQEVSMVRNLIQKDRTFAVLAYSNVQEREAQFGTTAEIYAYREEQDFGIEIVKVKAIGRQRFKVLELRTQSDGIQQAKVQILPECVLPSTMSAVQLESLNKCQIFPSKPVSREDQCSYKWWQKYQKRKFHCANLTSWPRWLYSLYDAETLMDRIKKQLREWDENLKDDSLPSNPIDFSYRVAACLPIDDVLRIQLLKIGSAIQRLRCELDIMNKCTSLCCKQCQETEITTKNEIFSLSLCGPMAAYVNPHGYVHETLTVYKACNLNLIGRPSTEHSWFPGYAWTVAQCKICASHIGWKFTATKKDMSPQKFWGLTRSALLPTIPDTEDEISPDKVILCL
T3 sequence (Q16531 whole entry partner): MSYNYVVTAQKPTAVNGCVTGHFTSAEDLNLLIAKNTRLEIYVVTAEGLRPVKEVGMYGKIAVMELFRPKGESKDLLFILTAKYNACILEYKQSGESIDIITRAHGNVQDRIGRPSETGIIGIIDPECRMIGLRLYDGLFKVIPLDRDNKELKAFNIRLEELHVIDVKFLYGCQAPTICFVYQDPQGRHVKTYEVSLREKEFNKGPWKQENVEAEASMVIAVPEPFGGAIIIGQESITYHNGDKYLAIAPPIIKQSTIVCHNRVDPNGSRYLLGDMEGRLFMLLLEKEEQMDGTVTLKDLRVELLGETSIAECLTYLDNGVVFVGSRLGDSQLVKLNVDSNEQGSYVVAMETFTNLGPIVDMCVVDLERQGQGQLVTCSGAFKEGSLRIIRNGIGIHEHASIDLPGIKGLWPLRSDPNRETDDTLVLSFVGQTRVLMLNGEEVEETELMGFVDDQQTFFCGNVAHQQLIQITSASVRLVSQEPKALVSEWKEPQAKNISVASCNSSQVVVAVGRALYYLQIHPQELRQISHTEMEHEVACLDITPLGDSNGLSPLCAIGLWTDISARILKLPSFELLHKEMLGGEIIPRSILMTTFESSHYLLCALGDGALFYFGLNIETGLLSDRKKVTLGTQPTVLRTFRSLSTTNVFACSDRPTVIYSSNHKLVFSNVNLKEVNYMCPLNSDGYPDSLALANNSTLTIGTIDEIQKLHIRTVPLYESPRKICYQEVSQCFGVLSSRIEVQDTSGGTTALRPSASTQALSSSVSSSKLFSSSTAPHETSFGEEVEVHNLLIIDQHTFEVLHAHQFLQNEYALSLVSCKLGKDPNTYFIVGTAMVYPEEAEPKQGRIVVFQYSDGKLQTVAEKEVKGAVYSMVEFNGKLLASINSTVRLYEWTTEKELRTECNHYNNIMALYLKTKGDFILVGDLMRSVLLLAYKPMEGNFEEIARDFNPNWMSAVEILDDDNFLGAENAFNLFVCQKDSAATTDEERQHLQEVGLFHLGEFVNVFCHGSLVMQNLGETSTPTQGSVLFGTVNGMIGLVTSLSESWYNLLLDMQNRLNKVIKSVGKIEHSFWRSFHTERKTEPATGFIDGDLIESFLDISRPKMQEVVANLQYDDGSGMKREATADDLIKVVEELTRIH

T2 sequence (Q13422 whole entry): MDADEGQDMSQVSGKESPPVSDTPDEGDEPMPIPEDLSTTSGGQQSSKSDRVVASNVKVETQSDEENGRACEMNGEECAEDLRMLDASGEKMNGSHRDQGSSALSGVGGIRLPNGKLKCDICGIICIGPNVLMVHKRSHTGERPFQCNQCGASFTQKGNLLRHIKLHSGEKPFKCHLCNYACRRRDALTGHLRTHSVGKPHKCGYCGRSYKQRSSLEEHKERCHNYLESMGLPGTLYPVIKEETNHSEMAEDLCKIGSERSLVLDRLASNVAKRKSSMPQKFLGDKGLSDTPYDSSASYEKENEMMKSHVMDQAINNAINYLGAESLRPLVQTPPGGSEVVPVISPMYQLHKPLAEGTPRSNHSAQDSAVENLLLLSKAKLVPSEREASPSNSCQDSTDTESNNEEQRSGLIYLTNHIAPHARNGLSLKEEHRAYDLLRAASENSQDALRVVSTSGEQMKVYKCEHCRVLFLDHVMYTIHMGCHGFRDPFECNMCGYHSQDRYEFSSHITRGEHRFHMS
T2 sequence (Q96SW2 whole entry): as the sequence (Q96SW2 whole entry) above
T2 sequence (Q16531 whole entry partner): as the sequence (Q16531 whole entry partner) above
T1 sequence (P48729 whole entry): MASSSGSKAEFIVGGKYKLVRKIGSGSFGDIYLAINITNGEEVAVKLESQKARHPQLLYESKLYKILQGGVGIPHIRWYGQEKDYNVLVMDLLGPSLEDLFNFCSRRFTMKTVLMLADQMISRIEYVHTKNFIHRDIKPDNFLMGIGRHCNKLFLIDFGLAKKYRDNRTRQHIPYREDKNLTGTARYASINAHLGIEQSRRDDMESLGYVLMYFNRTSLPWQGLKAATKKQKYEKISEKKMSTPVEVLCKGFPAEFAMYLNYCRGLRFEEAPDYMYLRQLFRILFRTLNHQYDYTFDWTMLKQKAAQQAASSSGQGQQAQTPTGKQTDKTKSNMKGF
T1 sequence (Q96SW2 whole entry): as the sequence (Q96SW2 whole entry) above
T1 sequence (Q16531 whole entry partner): as the sequence (Q16531 whole entry partner) above
GSPT1, sequence (P15170 whole entry): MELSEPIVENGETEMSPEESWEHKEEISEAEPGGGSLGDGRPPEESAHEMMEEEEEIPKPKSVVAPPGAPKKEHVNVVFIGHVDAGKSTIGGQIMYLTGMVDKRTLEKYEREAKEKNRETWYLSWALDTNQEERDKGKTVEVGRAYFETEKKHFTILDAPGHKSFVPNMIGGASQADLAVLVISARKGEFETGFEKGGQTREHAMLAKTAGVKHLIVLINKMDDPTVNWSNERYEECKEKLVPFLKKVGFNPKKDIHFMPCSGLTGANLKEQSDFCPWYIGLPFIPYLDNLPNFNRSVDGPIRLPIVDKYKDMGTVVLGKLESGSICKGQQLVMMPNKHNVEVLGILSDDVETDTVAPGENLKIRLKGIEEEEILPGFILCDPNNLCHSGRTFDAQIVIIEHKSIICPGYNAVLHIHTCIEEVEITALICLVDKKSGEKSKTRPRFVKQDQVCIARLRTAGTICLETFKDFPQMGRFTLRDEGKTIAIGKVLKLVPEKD
GSPT1, sequence (Q96SW2 whole entry): as the sequence (Q96SW2 whole entry) above
GSPT1, sequence (Q16531 whole entry partner): as the sequence (Q16531 whole entry partner) above

Structure (SMILES)	CK1α % degradation at 100 nM (CK1α) [%]	CK1α % degradation at 1 μM (CK1α) [%]	IKZF1% degradation at 100 nM (IKZF1) [%]	IKZF1% degradation at 1 μM (IKZF1) [%]	GSPT1% degradation at 100 nM (GSPT1) [%]	GSPT1% degradation at 1 μM (GSPT1) [%]	IKZF2% degradation at 100 nM (IKZF2) [%]	IKZF2% degradation at 1 μM (IKZF2) [%]
O=C1CCC(N2Cc3cc(NC(=O)c4ccc5cc(O)ccc5c4)ccc3C2=O)C(=O)N1 (stereo not drawn) [DEG-90, N-(2-(2,6-dioxopiperidin-3-yl)-1-oxoisoindolin-5-yl)-6-hydroxy-2-naphthamide]	54.5 ± 0.6	71.1 ± 0.6	6 ± 0.1	6.3 ± 1.6	−1.9 ± 1.4	7.8 ± 1.4	60 ± 1	89 ± 0.2
O=C1CCC(N2Cc3cc(NC(=O)C4=Cc5ccc(Br)cc5OC4)ccc3C2=O)C(=O)N1 (stereo not drawn) [DEG-83, 7-bromo-N-(2-(2,6-dioxopiperidin-3-yl)-1-oxoisoindolin-5-yl)-2H-chromene-3-carboxamide]	61.9 ± 0.4	30.2 ± 2.3	12.9 ± 1	47.5 ± 0.2	21.8 ± 2.3	49 ± 0.8	80.4 ± 0.5	94.4 ± 0.2
O=C1CCC(N2Cc3cc(NC(=O)c4ccc(Sc5ccccc5)cc4)ccc3C2=O)C(=O)N1 (stereo not drawn) [DEG-73, N-(2-(2,6-dioxopiperidin-3-yl)-1-oxoisoindolin-5-yl)-4-(phenylthio)benzamide]	56.6 ± 1.2	60.4 ± 0.6	11.7 ± 0.3	26.3 ± 0.6	11.1 ± 1.4	19.8 ± 0.8	67.4 ± 1.2	87.8 ± 0.3
COc1ccc2c(CC(=O)Nc3ccc4c(c3)CN(C3CCC(=O)NC3=O)C4=O)cccc2c1 (stereo not drawn) [DEG-58, N-(2-(2,6-dioxopipperidin-3-yl)-1-oxoisoindolin-5-yl)-2-(6-methoxynaphthalen-1-yl)acetamide]	63.4 ± 0.6	57 ± 0.1	97.7 ± 0.1	98.4 ± 0	29 ± 1.9	41.9 ± 0.8	93 ± 0.2	95.8 ± 0.1
O=C1CCC(N2Cc3cc(NC(=O)C4=Cc5ccc(C(F)(F)F)cc5OC4)ccc3C2=O)C(=O)N1 (stereo not drawn) [DEG-81, N-(2-(2,6-dioxopiperidin-3-yl)-1-oxoisoindolin-5-yl)-7-(trifluoromethyl)-2H-chromene-3-carboxamide]	66.3 ± 2	72 ± 0.3	8 ± 0.5	17.4 ± 3.3	2.8 ± 0.8	11.9 ± 1.9	75.1 ± 0.5	91.8 ± 0.1
COc1ccc2cccc(CC(=O)Nc3ccc4c(c3)CN(C3CCC(=O)NC3=O)C4=O)c2c1 (stereo not drawn) [DEG-68, N-(2-(2,6-dioxopiperidin-3-yl)-1-oxoisoindolin-5-yl)-2-(7-methoxynaphthalen-1-yl)acetamide]	59.7 ± 1.2	64.4 ± 1.6	96.9 ± 0.1	97.6 ± 0.1	16.6 ± 1.3	21.3 ± 1.8	92.2 ± 0.1	94.4 ± 0.1
